This is an account of results in patent publication US20250215028A1, “SYNTHETIC GLYCEROPHOSPHOLIPIDS COMPRISING AT LEAST ONE REACTIVE FUNCTION, PROCESS FOR PREPARING SAME AND USES THEREOF IN DIFFERENT APPLICATIONS” (UNIVERSITE DE ROUEN-NORMANDIE, priority 2022, published 2025).

One data set deals with T1, Spo20p-GFP (Saccharomyces cerevisiae, UniProt Q04359).
T1 construct: expressed in transfected cells; host or cells: PC12 cells
T1 sequence (Q04359 51-91 limits assumed): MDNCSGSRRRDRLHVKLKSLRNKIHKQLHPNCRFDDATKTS
Nature of the data set: Recruitment of Spo20p-GFP to the plasma membrane of PC12 cells after incubation with GPL (confocal microscopy). In kind it is cell-based. The following applies: GPL 100 μM, 5 min incubation, PC12 cells expressing Spo20p-GFP, FIG. 1. The procedure: This example illustrates the interaction between GPL (Ia) or (Ib) and a phosphatidic acid (PA) mobilizing protein, the green-fluorescent protein Spo20p-GFP, expressed in target cells.
For this purpose, GPL (Ia) and, for comparative purposes, a natural GPL PA 18:1-18:0 (referred to hereinbelow as GPL C1) sold under reference 840861C by Avanti Polar Lipids, are incubated for 5 min at a concentration of 100 μM, with PC12 cells expressing Spo20p-GFP.
Similarly, GPL (Ib) and, for comparative purposes, a natural GPL PA 18:2-18:0 (referred to hereinbelow as GPL C2) sold under reference 840862C by Avanti Polar Lipids, are incubated for 5 min at a concentration of 100 μM, with PC12 cells expressing Spo20p-GFP.
The GPL-free cell medium is used as a control (referred to hereinbelow as […]).
A marker referred to hereinbelow as Membright (obtained from Mayeul Collot UMR-7021, Strasbourg) is incubated for 5 minutes on cells in media as prepared above to specifically mark the cells' plasma membrane.

The target of a further data set is T2, CgA-AF633 (Homo sapiens, UniProt P10645).
T2 sequence (P10645 19-457): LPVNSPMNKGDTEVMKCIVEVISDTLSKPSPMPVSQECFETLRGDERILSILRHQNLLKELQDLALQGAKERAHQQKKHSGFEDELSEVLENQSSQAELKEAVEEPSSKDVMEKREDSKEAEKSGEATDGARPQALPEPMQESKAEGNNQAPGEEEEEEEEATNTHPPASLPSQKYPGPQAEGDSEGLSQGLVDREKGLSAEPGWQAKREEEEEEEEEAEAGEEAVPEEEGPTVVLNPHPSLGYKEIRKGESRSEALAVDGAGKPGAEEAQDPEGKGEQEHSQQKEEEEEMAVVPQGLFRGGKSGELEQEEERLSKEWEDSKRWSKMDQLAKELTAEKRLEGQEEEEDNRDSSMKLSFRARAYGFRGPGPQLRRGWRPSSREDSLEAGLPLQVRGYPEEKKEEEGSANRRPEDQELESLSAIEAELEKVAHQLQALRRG
The data set is described as follows: Interaction of CgA-AF633 protein with giant liposomes containing GPL (confocal microscopy). In kind it is binding. Particulars: CgA-AF633 4 μM, liposomes 96% DOPC / 4% GPL, FIG. 5. The text has this: This example illustrates the interaction between GPL (XIVa), which fluoresces green (by means of a nitrobenzadiazole-based fluorophore), and a red-fluorescent phosphatidic acid (PA) mobilizing protein, CgA-AF633.
(§1) For this purpose, giant liposomes composed of 96% by mass of dioleoylphosphatidylcholine (DOPC) and 4% by mass of GPL (XIVa), and, for comparative purposes, giant liposomes composed of 96% by mass of dioleoylphosphatidylcholine (DOPC) and 4% by mass of a natural GPL modified with a nitrobenzadiazole-based fluorophore: PA 18:1-6:0 NBD sold under the reference 810175C by Avanti Polar Lipids, at a concentration of 1 mM, are prepared using the polyvinyl alcohol (PVA)-assisted swelling method as described in Carmon et al., FASEB J., 2020, 34:6769-6790).
CgA, rendered red-fluorescent due to its coupling with the fluorophore Alexa 633 or AF633 (CgA-AF633), is incubated at 4 μM concentration with liposomes as prepared above. […]

Data set [1] can be described thus: Formation of giant liposomes (96% DOPC / 4% GPL) by PVA-assisted swelling, light and confocal microscopy. In kind it is physicochemical. Particulars: liposomes 96% by mass DOPC and 4% by mass GPL, 1 mM, FIG. 3 and 4. The protocol: as §1

Turning to `CCCCCCCC/C=C\CCCCCCCC(=O)O[C@@H](COP(=O)(O)O)[C@H](CN=[N+]=[N-])OC(=O)CCCCCCCCCCCCCCCCC` [GPL (Ia), (2S,3S)-4-azido-2-(oleoyloxy)-3-(stearoyloxy)butyl hydrogen phosphate], the “recruitment of the Spo20p-GFP protein to the plasma membrane” value on Spo20p-GFP is listed as “bring about recruitment of the Spo20p-GFP protein to the plasma membrane of PC12 cells in the same manner as do the corresponding natural GPLs”.

As for `CCCCCCCC/C=C\CCCCCCCC(=O)O[C@@H](COP(=O)(O)O)[C@H](Cn1nnc2c1-c1ccccc1CN(C(=O)CCCCCNc1ccc([N+](=O)[O-])c3nonc13)c1ccccc1-2)OC(=O)CCCCCCCCCCCCCCCCC` [GPL (XIVa), (2S,3S)-4-(8-(6-((7-nitrobenzo[c][1,2,5]oxadiazol-4-yl)amino)hexanoyl)-8,9-dihydro-1H-dibenzo[b,f][1,2,3]triazolo[4,5-d]azocin-1-yl)-1-(phosphonooxy)-3-(stearoyloxy)butan-2-yl oleate], at CgA-AF633, the “interaction of the CgA-AF633 protein with liposomes containing the GPL” value is on record as “only interacts with liposomes containing GPL (XIVa)” and the “membrane deformations in the liposomes on incubation with CgA-AF633” value is given as “does result in membrane deformations”. In addition, the “participation in the formation of giant liposomes” value in data set [1] is “participates in the formation of giant liposomes”.
